Assay results published in article PMC3568144, “Pseudomonas aeruginosa PA1006 Is a Persulfide-Modified Protein That Is Critical for Molybdenum Homeostasis” (PLoS ONE, 2013).

Experiments:
His6-PA3667/CsdA [1] = target: T1, His6-PA3667/CsdA (Pseudomonas aeruginosa, UniProt Q9HXX3); assay: […] transfer to the enzyme, non-reducing SDS-PAGE with phosphorimaging; assay type: biochemical; details: labelled compound; 50 µM 35S Cys, 2 µM enzyme, pH 7.5, 37°C, 10 min
T1 construct: gene csd; full length, His6 tag kept, pET24D, E. coli BL21pLysS, Ni-NTA and MonoQ; dimer (~100 kDa) by gel filtration
T1 sequence (Q9HXX3 1-401): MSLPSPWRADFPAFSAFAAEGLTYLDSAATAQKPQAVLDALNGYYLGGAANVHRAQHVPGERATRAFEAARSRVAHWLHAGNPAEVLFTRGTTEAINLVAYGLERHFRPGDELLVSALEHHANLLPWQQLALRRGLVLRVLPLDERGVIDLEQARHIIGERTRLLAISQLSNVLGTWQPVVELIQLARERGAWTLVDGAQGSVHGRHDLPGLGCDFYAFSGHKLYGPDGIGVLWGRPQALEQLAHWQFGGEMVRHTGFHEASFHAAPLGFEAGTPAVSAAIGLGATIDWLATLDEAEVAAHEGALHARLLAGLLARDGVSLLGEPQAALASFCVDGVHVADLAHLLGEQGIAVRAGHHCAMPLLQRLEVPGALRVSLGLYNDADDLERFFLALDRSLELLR

His6-PA3667/CsdA [2] = target: T1, His6-PA3667/CsdA; assay: absorption spectrum of purified enzyme (~[…] nm band, reducible with sodium borohydride); assay type: binding; details: 100 µM cofactor in purification and storage buffers
[3] = target: the molecule itself; assay: SEC; analytical gel filtration, Superose 6 column (GE Life Sciences), FPLC

N[C@@H](CS)C(=O)O [Cys]
35S transfer to the enzyme, non-reducing SDS-PAGE with phosphorimaging (His6-PA3667/CsdA [1]): PA3667/CsdA displayed Cys desulfurase activity and was capable of transferring

Cc1ncc(COP(=O)(O)O)c(C=O)c1O [pyridoxal phosphate]
absorption spectrum of purified enzyme (~400 nm band, reducible with sodium boro) (His6-PA3667/CsdA [2]): absorbance spectrum of His6-PA3667/CsdA indicated that it contained a pyridoxal phosphate cofactor

B1: His6-PA3667/CsdA purified from E. coli (enzyme, Pseudomonas aeruginosa, UniProt Q9HXX3 1-401, looked up)
chain: T1 sequence (Q9HXX3 1-401)
notes: PA3667/CsdA, cysteine desulfurase, Pseudomonas aeruginosa; Contains a pyridoxal phosphate cofactor; 100 µM pyridoxal phosphate was added to the buffers; source: E. coli BL21pLysS (pET24D), purified (Ni2+-NTA agarose, MonoQ)
stoichiometry N [3]: 2
